Tested on: PDC KRAS tumor spheroids with HUVEC/MSC, viability
Assay: Anticancer human tumor 349418-098-R-PDC patient-derived lung adenocarcinoma cell line growth inhibition [KRAS2]
Settings: for IC50: curve of first compound; for viability, T/C: stronger effect = lower value
In short: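 KRAS-mutant tumor cells were grown as spheroids with HUVEC endothelial cells and human MSCs as stroma. Targeted agents were tested alone and with KRAS pathway inhibitors. Doses started at or near clinical Cmax, or 10 microM, descending half-log.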

[1] = second compound 0.0316 µM, first compound 0.000316 µM
[2] = second compound 0.0316 µM, first compound 0.001 µM
[3] = second compound 0.0316 µM, first compound 0.00316 µM
[4] = second compound 0.0316 µM, first compound 0.01 µM
[5] = second compound 0.0316 µM, first compound 0.0316 µM
[6] = second compound 0.1 µM, first compound 0.000316 µM
[7] = second compound 0.1 µM, first compound 0.001 µM
[8] = second compound 0.1 µM, first compound 0.00316 µM
[9] = second compound 0.1 µM, first compound 0.01 µM
[10] = second compound 0.1 µM, first compound 0.0316 µM
[11] = second compound 0.316 µM, first compound 0.000316 µM
[12] = second compound 0.316 µM, first compound 0.001 µM
[13] = second compound 0.316 µM, first compound 0.00316 µM
[14] = second compound 0.316 µM, first compound 0.01 µM
[15] = second compound 0.316 µM, first compound 0.0316 µM
[16] = second compound 1 µM, first compound 0.000316 µM
[17] = second compound 1 µM, first compound 0.001 µM
[18] = second compound 1 µM, first compound 0.00316 µM
[19] = second compound 1 µM, first compound 0.01 µM
[20] = second compound 1 µM, first compound 0.0316 µM
[21] = second compound 3.16 µM, first compound 0.000316 µM
[22] = second compound 3.16 µM, first compound 0.001 µM
[23] = second compound 3.16 µM, first compound 0.00316 µM
[24] = second compound 3.16 µM, first compound 0.01 µM
[25] = second compound 3.16 µM, first compound 0.0316 µM
[26] = second compound 0.0316 µM, first compound 0.1 µM
[27] = second compound 0.1 µM, first compound 0.1 µM
[28] = second compound 0.316 µM, first compound 0.1 µM
[29] = second compound 1 µM, first compound 0.1 µM
[30] = second compound 3.16 µM, first compound 0.1 µM
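Also: spheroids exposed to compounds for seven days before readout.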

SMILES: CC(=O)Nc1cccc(-n2c(=O)n(C3CC3)c(=O)c3c(Nc4ccc(I)cc4F)n(C)c(=O)c(C)c32)c1 + C=CC(=O)N1CCN(c2nc(OCC3CCCN3C)nc3c2CCN(c2cccc4cccc(C)c24)C3)CC1CC#N
- IC50 (second compound 0.0316 µM): < 0.1 nM
- IC50 (second compound 0.1 µM): < 0.1 nM
- IC50 (second compound 0.316 µM): < 0.1 nM
- IC50 (second compound 1 µM): < 0.1 nM
- IC50 (second compound 3.16 µM): < 0.1 nM
- viability, T/C (second compound 0.0316 µM, first compound 0.0001 µM): 41.1%
- viability, T/C [1]: 20.2%
- viability, T/C [2]: 14.8%
- viability, T/C [3]: 12.2%
- viability, T/C [4]: 8.59%
- viability, T/C [5]: 6.57%
- viability, T/C (second compound 0.1 µM, first compound 0.0001 µM): 34.7%
- viability, T/C [6]: 20.9%
- viability, T/C [7]: 16.1%
- viability, T/C [8]: 10.9%
- viability, T/C [9]: 9.4%
- viability, T/C [10]: 6.86%
- viability, T/C (second compound 0.316 µM, first compound 0.0001 µM): 35.8%
- viability, T/C [11]: 21.8%
- viability, T/C [12]: 16.8%
- viability, T/C [13]: 12.6%
- viability, T/C [14]: 8.68%
- viability, T/C [15]: 6.94%
- viability, T/C (second compound 1 µM, first compound 0.0001 µM): 30.4%
- viability, T/C [16]: 23.3%
- viability, T/C [17]: 13.3%
- viability, T/C [18]: 9.39%
- viability, T/C [19]: 7.58%
- viability, T/C [20]: 6.58%
- viability, T/C (second compound 3.16 µM, first compound 0.0001 µM): 0.51%
- viability, T/C [21]: 0.21%
- viability, T/C [22]: 0.19%
- viability, T/C [23]: 0.46%
- viability, T/C [24]: 0.21%
- viability, T/C [25]: 0.34%

SMILES: CC(C)n1nc(-c2ccc3oc(N)nc3c2)c2c(N)ncnc21 + C=CC(=O)N1CCN(c2nc(OCC3CCCN3C)nc3c2CCN(c2cccc4cccc(C)c24)C3)CC1CC#N
- IC50 (second compound 0.0316 µM): 1.04 nM
- IC50 (second compound 0.1 µM): 0.76 nM
- IC50 (second compound 0.316 µM): 0.891 nM
- IC50 (second compound 1 µM): 0.673 nM
- IC50 (second compound 3.16 µM): < 0.316 nM
- viability, T/C [1]: 91.5%
- viability, T/C [2]: 51.2%
- viability, T/C [3]: 14.9%
- viability, T/C [4]: 9.06%
- viability, T/C [5]: 8.26%
- viability, T/C [26]: 8.57%
- viability, T/C [6]: 95.8%
- viability, T/C [7]: 35.6%
- viability, T/C [8]: 13.9%
- viability, T/C [9]: 8.16%
- viability, T/C [10]: 7.73%
- viability, T/C [27]: 7.41%
- viability, T/C [11]: 92.3%
- viability, T/C [12]: 45.2%
- viability, T/C [13]: 18%
- viability, T/C [14]: 9.14%
- viability, T/C [15]: 7.31%
- viability, T/C [28]: 7.9%
- viability, T/C [16]: 71.8%
- viability, T/C [17]: 38.3%
- viability, T/C [18]: 17.3%
- viability, T/C [19]: 7.45%
- viability, T/C [20]: 6.31%
- viability, T/C [29]: 6.74%
- viability, T/C [21]: 1%
- viability, T/C [22]: 0.25%
- viability, T/C [23]: 1.1%
- viability, T/C [24]: 0.13%
- viability, T/C [25]: 0.22%
- viability, T/C [30]: 0.17%

SMILES: CC1(C)CCC(CN2CCN(c3ccc(C(=O)NS(=O)(=O)c4ccc(NCC5CCOCC5)c([N+](=O)[O-])c4)c(Oc4cnc5[nH]ccc5c4)c3)CC2)=C(c2ccc(Cl)cc2)C1 + C=CC(=O)N1CCN(c2nc(OCC3CCCN3C)nc3c2CCN(c2cccc4cccc(C)c24)C3)CC1CC#N
- IC50 (second compound 0.0316 µM): 1680 nM
- IC50 (second compound 0.1 µM): 1340 nM
- IC50 (second compound 0.316 µM): 1510 nM
- IC50 (second compound 1 µM): 1180 nM
- IC50 (second compound 3.16 µM): < 31.6 nM
- viability, T/C [5]: 97.5%
- viability, T/C [26]: 100%
- viability, T/C (second compound 0.0316 µM, first compound 0.316 µM): 89.4%
- viability, T/C (second compound 0.0316 µM, first compound 1 µM): 80%
- viability, T/C (second compound 0.0316 µM, first compound 3.16 µM): 13.8%
- viability, T/C (second compound 0.0316 µM, first compound 10 µM): 4.29%
- viability, T/C [10]: 96.2%
- viability, T/C [27]: 94.8%
- viability, T/C (second compound 0.1 µM, first compound 0.316 µM): 76.5%
- viability, T/C (second compound 0.1 µM, first compound 1 µM): 66.2%
- viability, T/C (second compound 0.1 µM, first compound 3.16 µM): 13.6%
- viability, T/C (second compound 0.1 µM, first compound 10 µM): 4.13%
- viability, T/C [15]: 92.6%
- viability, T/C [28]: 87.5%
- viability, T/C (second compound 0.316 µM, first compound 0.316 µM): 77.1%
- viability, T/C (second compound 0.316 µM, first compound 1 µM): 72.1%
- viability, T/C (second compound 0.316 µM, first compound 3.16 µM): 10.9%
- viability, T/C (second compound 0.316 µM, first compound 10 µM): 3.73%
- viability, T/C [20]: 76.8%
- viability, T/C [29]: 75%
- viability, T/C (second compound 1 µM, first compound 0.316 µM): 68.2%
- viability, T/C (second compound 1 µM, first compound 1 µM): 57.7%
- viability, T/C (second compound 1 µM, first compound 3.16 µM): 4.26%
- viability, T/C (second compound 1 µM, first compound 10 µM): 1.75%
- viability, T/C [25]: 0.15%
- viability, T/C [30]: 0.15%
- viability, T/C (second compound 3.16 µM, first compound 0.316 µM): 0.14%
- viability, T/C (second compound 3.16 µM, first compound 1 µM): 0.2%
- viability, T/C (second compound 3.16 µM, first compound 3.16 µM): 0.09%
- viability, T/C (second compound 3.16 µM, first compound 10 µM): 0.11%

— PubChem BioAssay AID1963866 (Molecular Pharmacology Branch, DTP, NCI, 2024)
